Data set [1] relates to Streptococcus pneumoniae. As to the kind of experiment: Antibacterial activity against erythromycin-resistant Streptococcus pneumoniae SPN19-8 assessed as inhibition of visible bacterial growth incubated for 18 hrs by broth microdilution method. It is filed as functional. On the technique in general: Dilution methods test growth across graded concentrations, often in twofold steps.

In data set [2] the test system is Moraxella catarrhalis. In words: Antibacterial activity against Moraxella catarrhalis BCA 19-31 assessed as inhibition of bacterial growth incubated for 24 hrs by CLSI based broth microdilution method. It is filed as functional. Particulars: BCA 19-31, 24 h.
Data set [3] has as its system Staphylococcus epidermidis. In words: Antibacterial activity against erythromycin-resistant Staphylococcus epidermidis 19-4 assessed as inhibition of visible bacterial growth incubated for 18 hrs by broth microdilution method. It counts as functional.
Data set [4] has as its system Haemophilus influenzae. In words: Antibacterial activity against Haemophilus influenzae HIN 19-15 assessed as inhibition of bacterial growth incubated for 20 to 24 hrs by CLSI based broth microdilution method. It is filed as functional. Particulars: time 20-24 hrs.
In data set [5] the test system is Moraxella catarrhalis. In words: Antibacterial activity against Moraxella catarrhalis BCA 19-6 assessed as inhibition of bacterial growth incubated for 24 hrs by CLSI based broth microdilution method. It counts as functional. Particulars: Moraxella catarrhalis, BCA 19-6, 24 h, read-out: MIC.
Data set [6] relates to Haemophilus influenzae. As to the kind of experiment: Antibacterial activity against Haemophilus influenzae HIN 20-18 assessed as inhibition of bacterial growth incubated for 20 to 24 hrs by CLSI based broth microdilution method. It is filed as functional. Particulars: time 20-24 hrs.
Data set [7] relates to Streptococcus agalactiae. As to the kind of experiment: Antibacterial activity against erythromycin-resistant Streptococcus agalactiae 19-9 assessed as inhibition of visible bacterial growth incubated for 18 hrs by broth microdilution method. It counts as functional.
For data set [8], the system named is Haemophilus influenzae. In words: Antibacterial activity against Haemophilus influenzae HIN 19-18 assessed as inhibition of bacterial growth incubated for 20 to 24 hrs by CLSI based broth microdilution method. It is filed as functional. Particulars: HIN 19-18, time 20-24 hrs.
Data set [9] deals with Streptococcus pneumoniae. In words: Antibacterial activity against erythromycin-resistant Streptococcus pneumoniae SPN19-14 assessed as inhibition of visible bacterial growth incubated for 18 hrs by broth microdilution method. It is filed as functional.
Data set [10] is described as follows: Cytotoxicity against mouse AML12 cells assessed as reduction in cell viability incubated for 48 hrs by MTT assay. It counts as toxicity, cell-based. (Tetrazolium dyes change colour on reduction, which living cells bring about.)
Another data set deals with Streptococcus pyogenes. In words: Antibacterial activity against erythromycin-resistant Streptococcus pyogenes ATCC 19615 assessed as inhibition of visible bacterial growth incubated for 18 hrs by broth microdilution method. It is filed as functional.
Data set [11] concerns Staphylococcus epidermidis. In words: Antibacterial activity against erythromycin-resistant Staphylococcus epidermidis 19-9 assessed as inhibition of visible bacterial growth incubated for 18 hrs by broth microdilution method. It counts as functional.
The subject of data set [12] is Staphylococcus epidermidis. In words: Antibacterial activity against erythromycin-resistant Staphylococcus epidermidis 19-8 assessed as inhibition of visible bacterial growth incubated for 18 hrs by broth microdilution method. It is filed as functional.
Data set [13] relates to Moraxella catarrhalis. As to the kind of experiment: Antibacterial activity against Moraxella catarrhalis BCA 19-5 assessed as inhibition of bacterial growth incubated for 24 hrs by CLSI based broth microdilution method. It counts as functional. Particulars: Moraxella catarrhalis, BCA 19-5, 24 h, read-out: MIC.
The test system of data set [14] is Staphylococcus epidermidis. As to the kind of experiment: Antibacterial activity against erythromycin-resistant Staphylococcus epidermidis 19-11 assessed as inhibition of visible bacterial growth incubated for 18 hrs by broth microdilution method. It is filed as functional.
In data set [15] the test system is Streptococcus pneumoniae. In words: Antibacterial activity against erythromycin-resistant Streptococcus pneumoniae SPN19-13 assessed as inhibition of visible bacterial growth incubated for 18 hrs by broth microdilution method. It counts as functional.
The subject of data set [16] is Staphylococcus epidermidis. In words: Antibacterial activity against erythromycin-resistant Staphylococcus epidermidis 19-6 assessed as inhibition of visible bacterial growth incubated for 18 hrs by broth microdilution method. It is filed as functional.
Data set [17] concerns Staphylococcus epidermidis. In words: Antibacterial activity against erythromycin-resistant Staphylococcus epidermidis 19-5 assessed as inhibition of visible bacterial growth incubated for 18 hrs by broth microdilution method. It counts as functional.
In data set [18] the test system is Streptococcus agalactiae. In words: Antibacterial activity against erythromycin-resistant Streptococcus agalactiae 19-8 assessed as inhibition of visible bacterial growth incubated for 18 hrs by broth microdilution method. It is filed as functional.

SMILES strings stand for the structures. Converted amounts (≈) assume the structure as drawn.

As a reminder, the CC50 is the concentration at which the toxic effect on the cells reaches its halfway point.

In the case of `CC[C@H]1OC(=O)[C@@](C)(F)C(=O)[C@H](C)[C@@H](O[C@@H]2O[C@H](C)C[C@H](N(C)C)[C@H]2O)[C@](C)(OC)C[C@@H](C)C(=O)[C@H](C)[C@H]2N(CCCOC(=O)Nc3c(F)cccc3F)C(=O)O[C@]12C`, the MIC was determined as 0.125 µg/mL (≈ 0.148 µM) in the data set with Streptococcus pneumoniae [1]; 0.125 µg/mL (≈ 0.148 µM) in the data set with Moraxella catarrhalis [2]; 0.03 µg/mL (≈ 0.0355 µM) in data set [3]; 4 µg/mL (≈ 4.74 µM) in the data set with Haemophilus influenzae [4]; 0.125 µg/mL (≈ 0.148 µM) in the data set on Moraxella catarrhalis [5]; 16 µg/mL (≈ 19 µM) in the data set with Haemophilus influenzae [6]. The MIC with Streptococcus agalactiae [7] was 1 µg/mL (≈ 1.18 µM); in the data set with Haemophilus influenzae [8], 4 µg/mL (≈ 4.74 µM); with Streptococcus pneumoniae [9], 0.125 µg/mL (≈ 0.148 µM); in the data set with Streptococcus pyogenes, < 0.03 µg/mL; in data set [11], 0.25 µg/mL (≈ 0.296 µM); in data set [12], 0.125 µg/mL (≈ 0.148 µM). For the same molecule, the MIC in the data set on Moraxella catarrhalis [13] is 0.122 µg/mL (≈ 0.145 µM); in data set [14] it was < 0.03 µg/mL; in the data set on Streptococcus pneumoniae [15], 0.125 µg/mL (≈ 0.148 µM); in data set [16] it was 0.125 µg/mL (≈ 0.148 µM); in data set [17] it was < 0.03 µg/mL. Besides, the cytotoxic concentration (CC50) at 48 h in [10] is > 100 µM.

As for `CC[C@H]1OC(=O)[C@@](C)(F)C(=O)[C@H](C)[C@@H](O[C@@H]2O[C@H](C)C[C@H](N(C)C)[C@H]2O)[C@](C)(OC)C[C@@H](C)C(=O)[C@H](C)[C@H]2N(CCCOC(=O)Nc3cccc(C)c3C)C(=O)O[C@]12C`, the MIC in the data set on Streptococcus pneumoniae [1] was 0.125 µg/mL (≈ 0.15 µM); in the data set with Moraxella catarrhalis [2] it was 0.125 µg/mL (≈ 0.15 µM); in data set [3] it was 0.03 µg/mL (≈ 0.0359 µM); with Haemophilus influenzae [4], 8 µg/mL (≈ 9.57 µM); with Moraxella catarrhalis [5], 0.125 µg/mL (≈ 0.15 µM); in the data set on Haemophilus influenzae [6], 16 µg/mL (≈ 19.1 µM). Further, the MIC was 1 µg/mL (≈ 1.2 µM) in the data set with Streptococcus agalactiae [7]; 8 µg/mL (≈ 9.57 µM) in the data set on Haemophilus influenzae [8]; 0.06 µg/mL (≈ 0.0718 µM) with Streptococcus pneumoniae [9]; < 0.03 µg/mL with Streptococcus pyogenes; 0.125 µg/mL (≈ 0.15 µM) in data set [11]; < 0.03 µg/mL in data set [12]. Besides, the MIC is 0.125 µg/mL (≈ 0.15 µM) in the data set with Moraxella catarrhalis [13]; 0.03 µg/mL (≈ 0.0359 µM) in [14]; 0.06 µg/mL (≈ 0.0718 µM) in the data set with Streptococcus pneumoniae [15]; 0.03 µg/mL (≈ 0.0359 µM) in data set [16]; < 0.03 µg/mL in [17]. In data set [10], the CC50 at 48 h was 26 µM.

As to `CC[C@H]1OC(=O)[C@H](C)[C@@H](O[C@H]2C[C@@](C)(OC)[C@@H](O)[C@H](C)O2)[C@H](C)[C@@H](O[C@@H]2O[C@H](C)C[C@H](N(C)C)[C@H]2O)[C@](C)(O)C[C@@H](C)C(=O)[C@H](C)[C@@H](O)[C@]1(C)O` [ERYTHROMYCIN], the MIC is > 64 µg/mL with Streptococcus pneumoniae [1]; 0.5 µg/mL (≈ 0.681 µM) with Moraxella catarrhalis [2]; > 64 µg/mL in [3]; 8 µg/mL (≈ 10.9 µM) with Haemophilus influenzae [4]; 64 µg/mL (≈ 87.2 µM) with Moraxella catarrhalis [5]; > 16 µg/mL in the data set with Haemophilus influenzae [6]. For the same molecule, the MIC is 16 µg/mL (≈ 21.8 µM) in the data set on Streptococcus agalactiae [7]; 8 µg/mL (≈ 10.9 µM) with Haemophilus influenzae [8]; 0.5 µg/mL (≈ 0.681 µM) with Streptococcus pneumoniae [9]; < 0.03 µg/mL in the data set with Streptococcus pyogenes; > 64 µg/mL in [11]; 0.125 µg/mL (≈ 0.17 µM) with Streptococcus agalactiae [18]. In addition, the MIC is > 64 µg/mL in data set [12]; > 64 µg/mL in the data set on Moraxella catarrhalis [13]; 64 µg/mL (≈ 87.2 µM) in [14]; > 64 µg/mL in the data set with Streptococcus pneumoniae [15]; 32 µg/mL (≈ 43.6 µM) in data set [16]; 0.25 µg/mL (≈ 0.341 µM) in data set [17]. Moreover, the CC50 at 48 h in [10] was > 100 µM.

In the case of `CC[C@H]1OC(=O)[C@@](C)(F)C(=O)[C@H](C)[C@@H](O[C@@H]2O[C@H](C)C[C@H](N(C)C)[C@H]2O)[C@](C)(OC)C[C@@H](C)C(=O)[C@H](C)[C@H]2N(CCCOC(=O)Nc3cccc(F)c3C)C(=O)O[C@]12C`, the MIC with Streptococcus pneumoniae [1] was 0.25 µg/mL (≈ 0.298 µM); in the data set on Moraxella catarrhalis [2], 0.06 µg/mL (≈ 0.0714 µM); in data set [3] it was 0.06 µg/mL (≈ 0.0714 µM); in the data set on Haemophilus influenzae [4], 8 µg/mL (≈ 9.52 µM); with Moraxella catarrhalis [5] it was 0.45 µg/mL (≈ 0.536 µM); in the data set on Haemophilus influenzae [6], 16 µg/mL (≈ 19 µM). For the same molecule, the MIC in the data set on Streptococcus agalactiae [7] is 0.5 µg/mL (≈ 0.595 µM); in the data set on Haemophilus influenzae [8], 4 µg/mL (≈ 4.76 µM); in the data set on Streptococcus pneumoniae [9], 0.125 µg/mL (≈ 0.149 µM); in the data set on Streptococcus pyogenes, < 0.03 µg/mL; in [11] it was 0.5 µg/mL (≈ 0.595 µM); in [12], 0.06 µg/mL (≈ 0.0714 µM). The MIC in the data set on Moraxella catarrhalis [13] is 0.125 µg/mL (≈ 0.149 µM); in data set [14], < 0.03 µg/mL; with Streptococcus pneumoniae [15], 0.125 µg/mL (≈ 0.149 µM); in data set [16], 0.125 µg/mL (≈ 0.149 µM); in data set [17], < 0.03 µg/mL. Besides, in data set [10], the CC50 at 48 h was 36.7 µM.

The record behind these values is ChEMBL document CHEMBL5543097, “Synthesis and structure-activity relationships of novel 14-membered 2-fluoro ketolides with structural modification at the C11 position” (Eur J Med Chem, 2024).
